# {P} = phosphate
# What was measured:
# human Shh = test: siRNA inhibition of Shh expression in transfected HEK-293 cells (immunostaining); type: cell-based; details: for inhibition of Shh expression: 0.4 μg phShh plasmid + 20, 100 or 500 pmole siRNA, about 68 hours, anti-Shh staining (FIG. 2)
# Protocol: To test the effectiveness of the three siRNA antagonists, a confluent plate of HEK-293 cells were splited 1:3 and plated onto a 24-well tissue culture plate. The final density of cells was about 14,000 cells/well. Lipofectamine infection was carried out according to manufacturer's instruction. Specifically, 0.4 μg phShh^FL (a human Shh-encoding plasmid “pcDNA3.1-hShh”) and either 0, 20, 100, or 500 pmole of each annealed Shh siRNA antagonist were mixed in 25 μL of serum-free DMEM (no Pen./Strep.) with 4 μL of “Plus Reagent” for 15 minutes. At the same time, 1 μL of Lipofectamine was mixed in 25 μL of serum-free DMEM (no Pen./Strep.) with 4 μL of “Plus Reagent” for 15 minutes. At the end of the incubation, the two mixtures were combined to form complexes for 15 minutes. For each well of HEK-293 cells, the medium was changed to 200 μL of serum-free DMEM (no Pen./Strp.), and the formed complexes were then added to the respective test wells. After 3 hours of incubation at 37° C. in a 5% CO2 tissue culture incubator, 250 μL of DMEM (no Pen./Strep.) with 20% FBS were added to each well. The plate of cells were then returned to the incubator. After about 68 hours of incubation, cells in each well were fixed in 4% PFA/PAS, and stained with 1:200 dilution of rabbit anti-Shh antibody and Cy3-labeled anti-rabbit secondary antibody. […] Therefore, #1 siRNA was used for future experiments.
# (§1) Next, the specificity of the inhibitory effects #1 Shh siRNA antagonist was tested against two other related Hh proteins, Ihh and Dhh. Specifically, the same HEK-293 cells were splited and seeded to a final density of about 14,000 cells/well in a 24-well tissue culture plate. The same Lipofectamine transfection as described above were carried out for each of the following combinations: • 0.4 μg of pcDNA3.1-hShh+0, 50, or 250 pmoles of siRNA #1; • 0.4 μg of pcDNA3.1-hIhh+0, 50, or 250 pmoles of siRNA #1; • 0.4 μg of pcDNA3.1-hDhh+0, 50, or 250 pmoles of siRNA #1; and, • 0.4 μg of pcDNA3.1-hShh+250 pmoles of siRNA #1 reverse strand only control.
# (§2) After 2 hours of incubation with each of the complexes, the medium in each transfection well was replaced with 1 mL of fresh DMEM (no Pen./Strep.)+10% FBS, for the purpose of getting healthier cells at the end of the experiment. After 2 more days of incubation, all cells were fixed as described above, and stained with H-160 pan-Hh rabbit polyclonal antibody (Cat. No. sc-9024, Santa Cruz Biotechnology, CA) and Cy3-labeled anti-rabbit secondary antibody.
# [1] = test system: Sp-C expression in embryonic mouse lungs; test: Sp-C (surfactant type C) expression in embryonic mouse lung explants (Q-RT-PCR); type: cell-based; details: embryonic lung cultures (FIG. 10, FIG. 11)
# Protocol: Surfactant production is a measure of lung maturity, and the inability to produce surfactant is the primary cause of adult and infant respiratory distress syndrome. The increase in surfactant type C production was assessed by measuring expression of Sp-C, which encodes a protein critical for the production of surfactant.
# METHODS: E13.5 old embryonic mouse lungs were dissected. Explants were grown submerged in lung explant medium (DMEM based, additives optimized for the culture of mouse lungs) for 50 hrs. They were then processed for Q-RT-PCR. Briefly, total ribonucleic acid (RNA) is isolated from the tissue and subjected to reverse transcription to generate DNA. This DNA is amplified in a polymerase chain reaction using gene-specific primers as well as primers for the ubiquitously expressed housekeeping gene GAPDH. The two primer sets are labeled with different fluorophores, allowing for quantification of both signals in the same reaction tube in a real-time PCR machine (TaqMan). When calculating the expression level of Sp-C, the specific signal is normalized to the GAPDH signal, which serves as a measure of the total DNA used in the reaction.
# Steroids are known to increase lung maturation and surfactant production in animals, including humans.
# Ihh (pcDNA3.1-hIhh) = test: siRNA specificity test, Ihh expression in transfected HEK-293 cells; type: cell-based, human; details: pcDNA3.1-hIhh + 50 or 250 pmoles siRNA (FIG. 3)
# Protocol: as §1, §2
# Dhh (pcDNA3.1-hDhh) = test: siRNA specificity test, Dhh expression in transfected HEK-293 cells; type: cell-based, human; details: pcDNA3.1-hDhh + 50 or 250 pmoles siRNA (FIG. 3)
# Protocol: as §1, §2
# [2] = molecular target: Sonic hedgehog (Shh), functional hedgehog protein secreted by human cancer cell lines (human) (UniProt Q15465); test: cell-based or functional assay
# Sequence of UniProt Q15465 (Q15465 24-197 limits assumed): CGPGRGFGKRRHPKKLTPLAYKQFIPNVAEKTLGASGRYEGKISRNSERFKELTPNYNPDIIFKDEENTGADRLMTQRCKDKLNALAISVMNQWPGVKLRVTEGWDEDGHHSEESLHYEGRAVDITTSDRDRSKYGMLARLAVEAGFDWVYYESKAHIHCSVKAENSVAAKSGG
compound,measurement,setting,value
"siRNA #5: siRNA duplex against human Shh; sense 5′-P cgg uca agu cca gcu gaa gcc (SEQ ID NO: 9), antisense SEQ ID NO: 10 (sense CGGUCAAGUCCAGCUGAAGCC; antisense CUUCAGCUGGACUUGACCGCC; RNA, 5' {P}, backbone not given here)",inhibition of Shh expression,human Shh,slightly less effective than #1
C[C@]12CCC(=O)C=C1CC[C@@H]1[C@@H]2[C@@H](O)C[C@@]2(C)[C@H]1CC[C@]2(O)C(=O)CO [hydrocortisone],Sp-C expression,[1],increase in Sp-C expression
"siRNA #1: siRNA duplex against human Shh; sense 5′-P cga gau guc ugc ugc uag ucc (SEQ ID NO: 5), antisense SEQ ID NO: 6 (sense CGAGAUGUCUGCUGCUAGUCC; antisense ACUAGCAGCAGACAUCUCGCC; RNA, 5' {P}, backbone not given here)",inhibition of Shh expression,human Shh,nearly completely inhibits Shh expression
same,specificity for Shh as compared to Ihh and Dhh,human Shh; 50 or 250 pmoles siRNA (FIG. 3),very specific for Shh
same,inhibition of expression of human Shh,"human Shh; pcDNA3.1-hShh + 50 pmoles siRNA, H-160 pan-Hh staining (FIG. 3)",almost completely inhibited expression of human Shh
same,inhibition of Ihh expression,Ihh (pcDNA3.1-hIhh),did not obviously inhibit Ihh or Dhh expression
same,inhibition of Dhh expression,Dhh (pcDNA3.1-hDhh),did not obviously inhibit Ihh or Dhh expression
"siRNA #4: siRNA duplex against human Shh; sense 5′-P cag agu agc ccu aac cgc ucc (SEQ ID NO: 7), antisense SEQ ID NO: 8 (sense CAGAGUAGCCCUAACCGCUCC; antisense AGCGGUUAGGGCUACUCUGCC; RNA, 5' {P}, backbone not given here)",inhibition of Shh expression,human Shh,less pronounced
Shh blocking antibody (5E1),"inhibition of luciferase expression in S12 cells (gli-Luc assay, S12/RT-4 co-cultures), IC50",[2],0.085 µg/mL
same,"inhibition of luciferase expression in S12 cells (gli-Luc assay, S12/RT-4 co-cultures), IC90",[2],0.5 µg/mL

# Reference: US8802639B2, “RNA interference modulators of hedgehog signaling and uses thereof” (Curis, Inc., priority 2004, dated 2014)
